The results in this text go back to PubChem BioAssay (NCI).

Some test systems named below: 786-0 renal; ACHN renal; BT-549 breast; HCT-116 colon; HOP-62 NSCLC; KM12 colon; M14 melanoma; MDA-N; NCI-H23 lung; OVCAR-5 ovarian; RXF 393 renal; SF-295 CNS; SK-MEL-5 melanoma; SK-OV-3 ovarian; SN12C renal; SNB-19 CNS; SNB-75 CNS; UACC-62 melanoma; UO-31 renal; MALME-3M melanoma.
What all share (assay): NCI tumour cell line growth inhibition, 48 h

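Five concentrations, 48 hours, 96-well plates. Definition used: TGI = concentration required for complete inhibition of growth.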

In the case of `Cc1ccc2c(c1)[nH]c(=S)n2C=C(C(N)=O)C(N)=O`, the TGI in the assay on 786-0 renal, in the assay on ACHN renal, with BT-549 breast, in the assay on HCT-116 colon, in the assay with HOP-62 NSCLC and with KM12 colon was over 100 µM each time. In addition, the TGI in the assay on M14 melanoma, in the assay on MDA-N, in the assay on NCI-H23 lung, in the assay with OVCAR-5 ovarian, in the assay on RXF 393 renal and with SF-295 CNS was over 100 µM in each case. Further, the TGI with SK-MEL-5 melanoma, in the assay on SK-OV-3 ovarian, in the assay with SN12C renal, with SNB-19 CNS, with SNB-75 CNS and with UACC-62 melanoma was over 100 µM throughout. Besides, in the assay on UO-31 renal, the TGI is over 100 µM.

Regarding `C=CCC1(O)CC(n2cc(C)c(=O)[nH]c2=O)OC1CO[Si](C)(C)C(C)(C)C` (stereo not drawn), the TGI in the assay on 786-0 renal, with ACHN renal, with BT-549 breast, with HCT-116 colon, in the assay on HOP-62 NSCLC and with KM12 colon was over 100 µM in each case. The TGI in the assay on M14 melanoma, in the assay with MDA-N, with NCI-H23 lung, in the assay on OVCAR-5 ovarian, in the assay on RXF 393 renal and in the assay with SF-295 CNS was over 100 µM throughout. Further, the TGI in the assay with SK-MEL-5 melanoma, in the assay on SN12C renal, with SNB-19 CNS, with SNB-75 CNS, in the assay on UACC-62 melanoma and in the assay with UO-31 renal was over 100 µM throughout.

For the compound `COC1(c2ccc(Cl)cc2)SC=C(C)n2c1noc2=O` (stereo not drawn), the TGI with 786-0 renal, in the assay on ACHN renal, in the assay on BT-549 breast, in the assay with HCT-116 colon, with KM12 colon and in the assay on M14 melanoma was over 100 µM each time. Also, the TGI in the assay with MALME-3M melanoma, with MDA-N, with NCI-H23 lung, with OVCAR-5 ovarian, in the assay on RXF 393 renal and in the assay with SF-295 CNS was over 100 µM throughout. For the same compound, the TGI with SK-MEL-5 melanoma, in the assay with SN12C renal, with SNB-19 CNS, in the assay on UACC-62 melanoma and with UO-31 renal was over 100 µM in each case.

As for `Cc1nnc2n1N=C(c1ccccc1)/C(=C/c1ccc(-c3ccc(Cl)cc3)o1)S2`, the TGI with 786-0 renal was found to be 27.2 µM; in the assay with ACHN renal, 26.3 µM; in the assay with BT-549 breast it was 32.2 µM; in the assay on HCT-116 colon it was 25.9 µM; with HOP-62 NSCLC, 49.8 µM; in the assay with KM12 colon, 32.4 µM. Moreover, the TGI in the assay with M14 melanoma amounted to 36.6 µM; in the assay with MALME-3M melanoma it was 33.6 µM; in the assay on MDA-N, 34 µM; in the assay with NCI-H23 lung, 36.4 µM; with OVCAR-5 ovarian, 39.9 µM; with RXF 393 renal, 26.7 µM. The TGI in the assay with SF-295 CNS is 49.9 µM; with SK-MEL-5 melanoma, 27.2 µM; in the assay with SK-OV-3 ovarian, over 100 µM; in the assay with SN12C renal, 35.7 µM; in the assay with SNB-19 CNS it was 35 µM; in the assay on UACC-62 melanoma it was 29.1 µM. The same compound registered a TGI in the assay with UO-31 renal of 26.5 µM.

In the case of `S=c1nc2sc3c(c2c(Nc2ccc(Cl)cc2)[nH]1)CCCC3`, the TGI with 786-0 renal, with ACHN renal, in the assay on BT-549 breast, in the assay with HCT-116 colon, in the assay with HOP-62 NSCLC and with KM12 colon was over 100 µM throughout. Moreover, the TGI in the assay with MALME-3M melanoma, with MDA-N, with NCI-H23 lung, with OVCAR-5 ovarian, in the assay with RXF 393 renal and with SF-295 CNS was over 100 µM each time. Besides, the TGI in the assay on SK-MEL-5 melanoma, in the assay with SK-OV-3 ovarian, in the assay with SN12C renal, in the assay with SNB-19 CNS, in the assay with UACC-62 melanoma and with UO-31 renal was over 100 µM in each case.

On to `COc1cccc(-c2nc3ccccc3c(=O)[nH]2)c1`, for which the TGI in the assay with 786-0 renal came out at 28.1 µM; in the assay on ACHN renal it was 37.4 µM; in the assay on BT-549 breast it was 61.8 µM; in the assay on HCT-116 colon, 60.1 µM; in the assay with HOP-62 NSCLC, 37.1 µM; with KM12 colon, 86.9 µM. Moreover, the TGI was over 100 µM in the assay with M14 melanoma; 52.5 µM in the assay on MALME-3M melanoma; 36.9 µM in the assay with MDA-N; over 100 µM in the assay on NCI-H23 lung; over 100 µM in the assay with OVCAR-5 ovarian; 56.6 µM in the assay with RXF 393 renal. Moreover, the TGI with SF-295 CNS amounted to 88.9 µM; in the assay with SK-MEL-5 melanoma, 65.8 µM; with SK-OV-3 ovarian it was 48.2 µM; in the assay with SN12C renal, 82.2 µM; in the assay with SNB-19 CNS, 46.7 µM; in the assay with UACC-62 melanoma, 44 µM. Moreover, in the assay with UO-31 renal, the TGI was 45.2 µM.

With `S=C(N1CCN(c2ccc(Cl)c(Cl)c2)CC1)N1CCN(c2ccc(Cl)c(Cl)c2)CC1`, the TGI with 786-0 renal came out at 22.7 µM; in the assay on ACHN renal it was 27.4 µM; with BT-549 breast, 30.4 µM; in the assay on HCT-116 colon it was 19.4 µM; with HOP-62 NSCLC, 26.5 µM; in the assay with KM12 colon, 27.1 µM. Moreover, the TGI came to 32.3 µM in the assay with M14 melanoma; 28.1 µM with MALME-3M melanoma; 23.8 µM in the assay on MDA-N; 29.7 µM with NCI-H23 lung; 44.7 µM in the assay on OVCAR-5 ovarian; 35.1 µM in the assay with RXF 393 renal. Also, the TGI turned out to be 22.2 µM in the assay on SF-295 CNS; 28.4 µM in the assay with SK-MEL-5 melanoma; 25.1 µM in the assay with SK-OV-3 ovarian; 26.7 µM with SNB-19 CNS; 28.8 µM with UACC-62 melanoma; 25.8 µM in the assay on UO-31 renal.
